“Also recorded” adds a separate entry of the source.
Experiments:
[1] = Stability comparison between crystal forms I and II (influence factors: light, temperature, humidity); assay type: physicochemical; details: for change of purity of the compound: 10 days under light, 30° C. and 40° C., 75% RH and 90% RH
[2] = Special stability of crystal form II (grinding, heating, tableting); assay type: physicochemical
From the text: The crystal form II of a compound of formula (I) prepared according to the method of Example 2 was subjected to grinding, heating and tableting.

Row | Structure (SMILES) | purity of the compound, 30° C. ([1]; day 0) [%] | purity of the compound, 30° C. ([1]; day 5) [%] | purity of the compound, 30° C. ([1]; day 10) [%] | purity of the compound, 30° C. ([1]; day 30) [%] | purity of the compound, 40° C. ([1]; day 0) [%] | purity of the compound, 40° C. ([1]; day 5) [%] | purity of the compound, 40° C. ([1]; day 10) [%] | purity of the compound, 40° C. ([1]; day 30) [%] | change of purity of the compound [1] | purity of the compound, Illumination ([1]; open condition, day 0) [%] | purity of the compound, Illumination ([1]; open condition, day 5) [%] | purity of the compound, Illumination ([1]; open condition, day 10) [%] | purity of the compound, Illumination ([1]; open condition, day 30) [%] | purity of the compound, RH75% ([1]; day 0) [%] | purity of the compound, RH75% ([1]; day 5) [%] | purity of the compound, RH75% ([1]; day 10) [%] | purity of the compound, RH75% ([1]; day 30) [%] | purity of the compound, RH90% ([1]; day 0) [%] | purity of the compound, RH90% ([1]; day 5) [%] | purity of the compound, RH90% ([1]; day 10) [%] | also measured
1 | CCOC(=O)c1c(C#N)c(-c2ccc(Oc3c(F)cccc3F)cc2)cn1[C@@H]1CCN(C(=O)OC(C)(C)C)C1 [Crystal form I] | 99.31 | 99.23 | 99.10 | 98.87 | 99.31 | 99.18 | 99.05 | 95.01 | not obviously changed | 99.31 | 97.75 | 95.53 | 85.76 | 99.31 | 99.18 | 98.97 | 97.41 | 99.31 | 98.91 | 98.51 | purity of the compound, RH90% ([1]; day 30): 95.91%; crystal form re-tested after the influence factor experiment [1]: not changed
2 | CCOC(=O)c1c(C#N)c(-c2ccc(Oc3c(F)cccc3F)cc2)cn1[C@@H]1CCN(C(=O)OC(C)(C)C)C1 [Crystal form II] | 99.73 | 99.72 | 99.72 | 99.67 | 99.73 | 99.68 | 99.65 | 99.60 | not obviously changed | 99.73 | 99.56 | 99.43 | 99.21 | 99.73 | 99.72 | 99.68 | 99.64 | 99.73 | 99.71 | 99.61 | purity of the compound, RH90% ([1]; day 30): 99.53%; crystal form re-tested after the influence factor experiment [1]: not changed; stability compared with crystal form I (amorphous sample) ([1]; open condition, light, high temperature and high humidity): significantly better; XRD detection (crystal form after treatment) ([2]; Grinding for 10 min in a mortar under nitrogen protection): Crystal; XRD detection (crystal form after treatment) ([2]; Tableting): Crystal; stability of the crystal form under mechanical treatment ([2]; grinding, heating and tableting (pressure)): good stability; also recorded: stable

— patent US11180449B2, “Crystal form of key intermediate of bruton tyrosine kinase (BTK) inhibitor and preparation method thereof” (SHANGHAI ZAIQI BIO-TECH CO., LTD., priority 2019, dated 2021)
